From patent US10858373B2, “Heterocyclic spiro compounds as MAGL inhibitors” (Pfizer Inc., priority 2017, dated 2020)
Read-outs that look alike come from different tables or passages of the source.

Tests used:
[1] = biological target: T1, human recombinant Monoacylglycerol Lipase (Homo sapiens (Human), UniProt Q99685); assay: MAGL Enzymatic Assay (fluorogenic substrate 7-HCA), IC50; assay type: biochemical; conditions: geometric mean of 2-4 determinations unless otherwise indicated
Protocol: An equal volume of 7-HCA in assay buffer with 10% DMSO was added either immediately (T=0 min) or after a 30 minute incubation (T=30 min) to initiate the reaction. […] After these dilutions, the final concentration of the test compound ranged from 3 μM to 0.03 nM. […] IC50 values were generated based on a four parameter fit model using ABASE software from IDBS.

[2] = biological target: T1, human recombinant Monoacylglycerol Lipase; assay: MAGL inactivation (enzyme progress curves, kinact/KI); assay type: biochemical; conditions: from plot of Kobs vs. compound concentration; T=0 min protocol; geometric mean of 2-4 determinations

T1 sequence (Q99685 whole entry): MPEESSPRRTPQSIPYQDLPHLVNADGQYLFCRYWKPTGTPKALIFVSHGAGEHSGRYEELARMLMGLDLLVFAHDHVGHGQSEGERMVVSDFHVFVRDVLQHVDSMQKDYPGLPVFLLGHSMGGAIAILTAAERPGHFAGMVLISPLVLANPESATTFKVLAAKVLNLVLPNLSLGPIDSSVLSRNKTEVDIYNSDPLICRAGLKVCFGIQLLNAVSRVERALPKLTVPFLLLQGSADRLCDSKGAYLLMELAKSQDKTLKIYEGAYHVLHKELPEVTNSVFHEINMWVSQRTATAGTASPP

IC50 ([1]; substrate added after a 30 minute incubation (T=30 min), read-out: MAGL (T = 30 min) IC50): > 247 nM
IC50 ([1]; substrate added immediately (T=0 min), read-out: MAGL (T = 0 min) IC50): > 692 nM
MAGL Kinact/Kl [2]: 3290 1/s per M
SMILES: CN(C(=O)C(C)(C)C)C1COC2(CCN(C(=O)ON3C(=O)CCC3=O)CC2)C1 (stereo not drawn) [Example 51, N-(8-{[(2,5-dioxopyrrolidin-1-yl)oxy]carbonyl}-1-oxa-8-azaspiro[4.5]dec-3-yl)-N,2,2-trimethylpropanamide]
